Results: patent US7144893B2, “4-aryl quinols and analogs thereof as therapeutic agents” (Cancer Research Technology Limited, priority 2001, dated 2006)
Converted amounts (≈) assume the structure as drawn.

Legend:
Format in all cases: cell-based
[1] = tested on: 60 human cancer cell lines; experiment: cells; conditions: Homo sapiens; for CC50: 60 cell, 48 h, read-out: mean LC50; for GI50: mean over NCI 60 cell panel, 48 h drug exposure
Method: (§1) Compounds were tested for in vitro activity (48 h drug exposure) across 60 human cancer cell lines through the National Cancer Institute (NCI) Developmental Therapies Screening Program (Boyd et al., 1995).

[2] = tested on: colon sub-panel; experiment: cells; conditions: Homo sapiens, SW-620, read-out: mean LC50 in colon sub-panel
Method: as §1

[3] = tested on: renal sub-panel; experiment: cells; conditions: Homo sapiens, 60 cell, read-out: mean LC50 in renal sub-panel
Method: as §1

[4] = tested on: Mycobacterium tuberculosis H37Rv (ATCC 27294); experiment: Microplate Alamar Blue Assay (MABA), TAACF primary screening; conditions: lowest concentration effecting a reduction in fluorescence of 90% relative to controls
From the text: Compounds were submitted to the Tuberculosis Antimicrobial Acquisition and Coordinating Facility (TAACF) for testing as antimycobacterial drugs.
Compounds were subjected to in vitro evaluation for antimycobacterial activity.
See, for example, Collins et al., 1997.

[5] = tested on: MCF-7 (ER+) breast carcinoma; experiment: Growth inhibitory assay (MTT, 72 hr); conditions: Homo sapiens, MCF7, 72 hr exposure
Method: (§2) Compounds were prepared as 10 mM top stocks, dissolved in DMSO, and stored at 4° C., protected from light, for a maximum period of 4 weeks. Human derived cell lines (HCT 116, HT29 colon carcinoma; MCF-7 (ER+), MDA 468 (ER−) breast carcinoma; A549 lung adenocarcinoma) were routinely cultivated at 37° C. in an atmosphere of 5% CO2 in RPMI 1640 medium supplemented with 2 mM L-glutamine and 10% fetal calf serum and subcultured twice weekly to maintain continuous logarithmic growth. Cells were seeded into 96-well microtiter plates at a density of 5×10^3 per well and allowed 24 hr to adhere before drugs were introduced (final concentration 0.1 nM–100 μM, n=8). Serial drug dilutions were prepared in medium immediately prior to each assay. At the time of drug addition and following 72 hr exposure, MTT was added to each well (final concentration 400 µg/mL). Incubation at 37° C. for 4 hr allowed reduction of MTT by mitochondrial dehydrogenase to an insoluble formazan product. Well contents were aspirated and formazan solubilized by addition of DMSO:glycine buffer (pH 10.5) (4:1). Absorbance was measured using an Anthos Labtec systems plate reader at 550 nm, and used as a measure of cell viability; thus cell growth or drug toxicity was determined.

[6] = tested on: MDA 468 (ER−) breast carcinoma; experiment: Growth inhibitory assay (MTT, 72 hr); conditions: Homo sapiens, 72 hr exposure
Method: as §2

[7] = tested on: HCT 116 colon carcinoma; experiment: Growth inhibitory assay (MTT, 72 hr); conditions: Homo sapiens, 72 hr exposure
Method: as §2

[8] = tested on: HT29 colon carcinoma; experiment: Growth inhibitory assay (MTT, 72 hr); conditions: Homo sapiens, HT-29, 72 hr exposure
Method: as §2

SMILES | CC50 [1] | GI50 [1] | LC50 [2] | mean LC50 [3] | MIC [4] | IC50 [5] | IC50 [6] | IC50 [7] | IC50 [8]
O=C1C=CC(O)(c2cc3ccccc3s2)c2ccccc21 (centres unmarked) [Q46, 4-Benzothiophen-2-yl-4-hydroxy-4H-naphth-1-one] | 70.8 µM | 2.29 µM | > 100 µM | > 100 µM |  |  |  |  | 
O=C1CC(Sc2ccccc2)C(O)(c2nc3ccccc3s2)C(Sc2ccccc2)C1 (centres unmarked) [Q25] |  | 0.59 µM |  |  | 1.56 µg/mL (≈ 3.36 µM) |  |  |  | 
COC1(c2nc3ccc(F)cc3s2)C=CC(=NS(=O)(=O)c2ccc(C)cc2)C=C1 (centres unmarked) [Q32, N-[4-methoxy-4-(6-fluorobenzothiazol-2-yl)cyclohexa-2,5-dienylidene]-4-methylbenzenesulphonamide] | 30.2 µM | 1.74 µM | 25.6 µM | 19.1 µM |  |  |  |  | 
O=C1CC(SCc2ccccc2)C(O)(c2ccccc2)C(SCc2ccccc2)C1 (centres unmarked) [Q24, 4-Hydroxy-4-phenyl-3,5-di[(phenyl)methylthio]-cyclohexan-1-one] |  | 3.98 µM |  |  |  |  |  |  | 
O=C1C=CC(O)(c2cnc3ccccc3c2)C=C1 [Q10, 4-(Quinolin-3-yl)-4-hydroxy-2,5-cyclohexadien-1-one] | 15.8 µM | 1.07 µM | 10.2 µM | 9.66 µM | 3.13 µg/mL (≈ 13.2 µM) | 0.77 µM | 1.7 µM | 0.72 µM | 0.97 µM
CCSC1CC(=O)CC(SCC)C1(O)c1ccccc1 (centres unmarked) [Q22, 3,5-Di(ethylthio)-4-hydroxy-4-phenylcyclohexan-1-one] |  | 12.6 µM |  |  |  |  |  |  | 
O=C1C=CC(O)(c2nc3ccccc3s2)C(Cl)=C1 (centres unmarked) [Q06, 4-(Benzothiazol-2-yl)-3-chloro-4-hydroxy-2,5-cyclohexadien-1-one] | 6.31 µM | 0.46 µM | 2.31 µM | 1.8 µM |  |  |  | 14.9 µM | 26.3 µM
O=C1C=CC(O)(c2ccc3ccccc3c2)C=C1 [Q08, 4-(Naphth-2-yl)-4-hydroxy-2,5-cyclohexadien-1-one] | 11.7 µM | 0.81 µM | 6.58 µM | 4.68 µM |  | 1.3 µM | 1.4 µM | 0.82 µM | 2.5 µM
O=C1C=CC(O)(c2cccc3ccccc23)C=C1 [Q09, 4-(Naphth-1-yl)-4-hydroxy-2,5-cyclohexadien-1-one] | 25.7 µM | 1.82 µM | 12.2 µM | 17 µM |  | 0.78 µM | 1.77 µM | 0.42 µM | 1.36 µM
O=C1C=CC(O)(c2cccs2)C=C1 [Q13, 4-(Thiophen-2-yl)-4-hydroxy-2,5-cyclohexadien-1-one] | 30.9 µM | 1.78 µM | 32.5 µM | 14.4 µM | 6.25 µg/mL (≈ 32.5 µM) | 0.569 µM | 0.719 µM | 0.663 µM | 1.25 µM
COC1(c2nc3ccccc3s2)C=CC(=NS(=O)(=O)c2ccc(C)cc2)C=C1 (centres unmarked) [Q29, N-[4-methoxy-4-(benzothiazol-2-yl)cyclohexa-2,5-dienylidene]-4-methylbenzenesulphonamide] | 83.2 µM | 15.5 µM | > 100 µM | > 100 µM |  |  |  |  | 
O=C1C=CC(O)(c2nccs2)C=C1 [Q14, 4-(Thiazol-2-yl)-4-hydroxy-2,5-cyclohexadien-1-one] | 14.5 µM | 1.35 µM | 6.19 µM | 9.17 µM | 3.13 µg/mL (≈ 16.2 µM) |  |  | 0.618 µM | 0.719 µM
NC(CCC(=O)NC(CSC1CC(=O)C=CC1(O)c1nc2ccccc2s1)C(=O)NCC(=O)O)C(=O)O (centres unmarked) [Q28, 4-Benzothiazol-2-yl-5-S-glutathionyl-4-hydroxy-cyclohex-2-enone] |  | 2.19 µM |  |  |  |  |  |  | 
O=C1CCC(O)(c2nc3ccccc3s2)CC1 [Q43, 4-(Benzothiazol-2-yl)-4-hydroxycyclohexanone] | > 100 µM | > 100 µM | > 100 µM | > 100 µM |  |  |  |  | 
O=C1C=CC(O)(c2ccccn2)C=C1 [Q12, 4-(Pyridin-2-yl)-4-hydroxy-2,5-cyclohexadien-1-one] | 20.4 µM | 1.91 µM | 6.9 µM | 11.3 µM | 6.25 µg/mL (≈ 33.4 µM) | 0.72 µM | 1.5 µM | 0.547 µM | 0.46 µM
CC1=CC(O)(c2nc3ccccc3s2)C=C(C)C1=O [Q44, 4-(benzothiazol-2-yl)-4-hydroxy-2,6-dimethylcyclohexa-2,5-dien-1-one] | > 100 µM | 38.2 µM | > 100 µM | > 100 µM |  |  |  |  | 
O=C1C=CC(O)(c2cc3ccccc3o2)c2ccccc21 (centres unmarked) [Q47, 4-(Benzofuran-2-yl)-4-hydroxy-4H-naphth-1-one] | 7.76 µM | 0.74 µM | 7.76 µM | 6.48 µM |  |  |  |  | 
CC(=O)OC1(c2ccccc2)C=CC(=O)C=C1 [Q21, 4-acetoxy-4-phenyl-2,5-cyclohexadien-1-one] |  | 4.79 µM |  |  |  |  |  |  | 
O=C1CC(Sc2ccccc2)C(O)(c2ccccc2)C(Sc2ccccc2)C1 (centres unmarked) [Q23, 4-Hydroxy-4-phenyl-3,5-di(phenylthio)-cyclohexan-1-one] |  | 1.82 µM |  |  |  |  |  |  | 
O=C1/C(=C\c2ccccc2)CC(O)(c2nc3ccccc3s2)C/C1=C/c1ccccc1 (centres unmarked) [Q45, 4-(benzothiazol-2-yl)-2,6-bis(phenylmethinyl)-4-hydroxycyclohexanone] | 47.9 µM | 2.69 µM | 17.4 µM | 37.2 µM |  |  |  |  | 
COC1(c2ccccc2)C=CC(=O)C=C1 [Q16, 4-Methoxy-4-phenyl-2,5-cyclohexadien-1-one] |  | 25.4 µM |  |  |  |  |  |  | 
O=C1C=CC(O)(c2ccccc2)C=C1 [Q11, 4-Phenyl-4-hydroxy-2,5-cyclohexadien-1-one] | 21.9 µM | 2.29 µM | 10.6 µM | 16.7 µM |  |  |  | 2.22 µM | 3.63 µM
COC1(c2nc3c(F)cccc3s2)C=CC(=NS(=O)(=O)c2ccc(C)cc2)C=C1 (centres unmarked) [Q33, N-[4-methoxy-4-(4-fluorobenzothiazol-2-yl)cyclohexa-2,5-dienylidene]-4-methylbenzenesulphonamide] | 27.5 µM | 2.57 µM | 26.9 µM | 14.4 µM |  |  |  |  | 
COC1(c2nc3ccc(C)cc3s2)C=CC(=NS(=O)(=O)c2ccc(C)cc2)C=C1 (centres unmarked) [Q30, N-[4-methoxy-4-(6-methylbenzothiazol-2-yl)cyclohexa-2,5-dienylidene]4-methylbenzenesulphonamide] | 19.5 µM | 1.2 µM | 9.92 µM | 10.6 µM |  |  |  |  | 
COc1ccc2nc(C3(OC)C=CC(=NS(=O)(=O)c4ccc(C)cc4)C=C3)sc2c1 (centres unmarked) [Q31, N-[4-methoxy-4-(6-methoxybenzothiazol-2-yl)cyclohexa-2,5-dienylidene]-4-methylbenzenesulphonamide] | 18.6 µM | 1.91 µM | 13.2 µM | 11.2 µM |  |  |  |  | 
